In PubChem BioAssay (NCI):
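All cell lines were grown in 96-well plates and treated with compound for 48 hours. At the GI50, growth is halved. TGI denotes the concentration required for complete inhibition of growth.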

How the values were obtained:
Experiment in all cases: NCI tumour cell line growth inhibition, 48 h
A549 NSCLC = system: A549 NSCLC
SN12C renal = system: SN12C renal
OVCAR-3 ovarian = system: OVCAR-3 ovarian
MDA-MB-231 breast = system: MDA-MB-231 breast
LOX IMVI melanoma = system: LOX IMVI melanoma
SK-MEL-2 melanoma = system: SK-MEL-2 melanoma
CCRF-CEM leukemia = system: CCRF-CEM leukemia
SNB-75 CNS = system: SNB-75 CNS
MDA-MB-435 = system: MDA-MB-435
MOLT-4 leukemia = system: MOLT-4 leukemia
COLO 205 colon = system: COLO 205 colon
NCI-H23 lung = system: NCI-H23 lung
U251 CNS = system: U251 CNS
HCC-2998 colon = system: HCC-2998 colon
HCT-15 colon = system: HCT-15 colon
M14 melanoma = system: M14 melanoma
SK-OV-3 ovarian = system: SK-OV-3 ovarian
NCI-H460 lung = system: NCI-H460 lung
MCF7 breast = system: MCF7 breast
SF-295 CNS = system: SF-295 CNS
SW-620 colon = system: SW-620 colon
NCI/ADR-RES ovarian = system: NCI/ADR-RES ovarian
IGROV1 ovarian = system: IGROV1 ovarian
UACC-62 melanoma = system: UACC-62 melanoma
SF-539 CNS = system: SF-539 CNS
KM12 colon = system: KM12 colon
CAKI-1 renal = system: CAKI-1 renal
SF-268 CNS = system: SF-268 CNS
A498 renal = system: A498 renal
HL-60(TB) leukemia = system: HL-60(TB) leukemia
OVCAR-4 ovarian = system: OVCAR-4 ovarian
NCI-H226 lung = system: NCI-H226 lung
RPMI-8226 leukemia = system: RPMI-8226 leukemia
HCT-116 colon = system: HCT-116 colon
HT29 colon = system: HT29 colon
NCI-H522 lung = system: NCI-H522 lung
SNB-19 CNS = system: SNB-19 CNS
HS 578T breast = system: HS 578T breast
HOP-92 NSCLC = system: HOP-92 NSCLC
HOP-62 NSCLC = system: HOP-62 NSCLC
786-0 renal = system: 786-0 renal
T-47D breast = system: T-47D breast
PC-3 prostate = system: PC-3 prostate
TK-10 renal = system: TK-10 renal
SK-MEL-5 melanoma = system: SK-MEL-5 melanoma
ACHN renal = system: ACHN renal
K-562 leukemia = system: K-562 leukemia
OVCAR-5 ovarian = system: OVCAR-5 ovarian
SK-MEL-28 melanoma = system: SK-MEL-28 melanoma
MALME-3M melanoma = system: MALME-3M melanoma
SR leukemia = system: SR leukemia
EKVX NSCLC = system: EKVX NSCLC
UO-31 renal = system: UO-31 renal

SMILES: COc1cc(-n2cc(-c3ccccc3)[nH]c2=O)cc(OC)c1OC
- GI50 (A549 NSCLC): 38.9 µM
- TGI (A549 NSCLC): > 100 µM
- GI50 (SN12C renal): 47.6 µM
- TGI (SN12C renal): > 100 µM
- GI50 (OVCAR-3 ovarian): 23.2 µM
- TGI (OVCAR-3 ovarian): > 100 µM
- GI50 (MDA-MB-231 breast): 37.2 µM
- TGI (MDA-MB-231 breast): > 100 µM
- GI50 (LOX IMVI melanoma): > 100 µM
- TGI (LOX IMVI melanoma): > 100 µM
- GI50 (SK-MEL-2 melanoma): > 100 µM
- TGI (SK-MEL-2 melanoma): > 100 µM
- GI50 (CCRF-CEM leukemia): > 100 µM
- TGI (CCRF-CEM leukemia): > 100 µM
- GI50 (SNB-75 CNS): 13.9 µM
- TGI (SNB-75 CNS): 34 µM
- GI50 (MDA-MB-435): 76.3 µM
- TGI (MDA-MB-435): > 100 µM
- GI50 (MOLT-4 leukemia): > 100 µM
- TGI (MOLT-4 leukemia): > 100 µM
- GI50 (COLO 205 colon): > 100 µM
- TGI (COLO 205 colon): > 100 µM
- GI50 (NCI-H23 lung): > 100 µM
- TGI (NCI-H23 lung): > 100 µM
- GI50 (U251 CNS): 41.3 µM
- TGI (U251 CNS): > 100 µM
- GI50 (HCC-2998 colon): > 100 µM
- TGI (HCC-2998 colon): > 100 µM
- GI50 (HCT-15 colon): 85.2 µM
- TGI (HCT-15 colon): > 100 µM
- GI50 (M14 melanoma): > 100 µM
- TGI (M14 melanoma): > 100 µM
- GI50 (SK-OV-3 ovarian): 34.3 µM
- TGI (SK-OV-3 ovarian): > 100 µM
- GI50 (NCI-H460 lung): 52.2 µM
- TGI (NCI-H460 lung): > 100 µM
- GI50 (MCF7 breast): 44.9 µM
- TGI (MCF7 breast): > 100 µM
- GI50 (SF-295 CNS): 37.8 µM
- TGI (SF-295 CNS): > 100 µM
- GI50 (SW-620 colon): > 100 µM
- TGI (SW-620 colon): > 100 µM
- GI50 (NCI/ADR-RES ovarian): 33 µM
- TGI (NCI/ADR-RES ovarian): > 100 µM
- GI50 (IGROV1 ovarian): > 100 µM
- TGI (IGROV1 ovarian): > 100 µM
- GI50 (UACC-62 melanoma): 36.9 µM
- TGI (UACC-62 melanoma): > 100 µM
- GI50 (SF-539 CNS): 21.5 µM
- TGI (SF-539 CNS): 63.8 µM
- GI50 (KM12 colon): > 100 µM
- TGI (KM12 colon): > 100 µM
- GI50 (CAKI-1 renal): 37.8 µM
- TGI (CAKI-1 renal): > 100 µM
- GI50 (SF-268 CNS): 28.5 µM
- TGI (SF-268 CNS): 89.7 µM
- GI50 (A498 renal): 35.1 µM
- TGI (A498 renal): > 100 µM
- GI50 (HL-60(TB) leukemia): 60.3 µM
- TGI (HL-60(TB) leukemia): > 100 µM
- GI50 (OVCAR-4 ovarian): 17.1 µM
- TGI (OVCAR-4 ovarian): 52.8 µM
- GI50 (NCI-H226 lung): 57.4 µM
- TGI (NCI-H226 lung): > 100 µM
- GI50 (RPMI-8226 leukemia): > 100 µM
- TGI (RPMI-8226 leukemia): > 100 µM
- GI50 (HCT-116 colon): 58.1 µM
- TGI (HCT-116 colon): > 100 µM
- GI50 (HT29 colon): > 100 µM
- TGI (HT29 colon): > 100 µM
- GI50 (NCI-H522 lung): 27.2 µM
- TGI (NCI-H522 lung): > 100 µM
- GI50 (SNB-19 CNS): 30.9 µM
- TGI (SNB-19 CNS): > 100 µM
- GI50 (HS 578T breast): 29.8 µM
- TGI (HS 578T breast): 85.4 µM
- GI50 (HOP-92 NSCLC): 20.6 µM
- TGI (HOP-92 NSCLC): 83.1 µM
- GI50 (HOP-62 NSCLC): 39.1 µM
- TGI (HOP-62 NSCLC): > 100 µM
- GI50 (786-0 renal): 23.7 µM
- TGI (786-0 renal): 91.1 µM
- GI50 (T-47D breast): 30.5 µM
- TGI (T-47D breast): > 100 µM
- GI50 (PC-3 prostate): 40 µM
- TGI (PC-3 prostate): > 100 µM
- GI50 (TK-10 renal): 39.6 µM
- TGI (TK-10 renal): > 100 µM
- GI50 (SK-MEL-5 melanoma): 39.4 µM
- TGI (SK-MEL-5 melanoma): > 100 µM
- GI50 (ACHN renal): 45.5 µM
- TGI (ACHN renal): > 100 µM
- GI50 (K-562 leukemia): 83.9 µM
- TGI (K-562 leukemia): > 100 µM
- GI50 (OVCAR-5 ovarian): > 100 µM
- TGI (OVCAR-5 ovarian): > 100 µM
- GI50 (SK-MEL-28 melanoma): 31.4 µM
- TGI (SK-MEL-28 melanoma): > 100 µM
- GI50 (MALME-3M melanoma): 33.7 µM
- TGI (MALME-3M melanoma): > 100 µM
- GI50 (SR leukemia): > 100 µM
- TGI (SR leukemia): > 100 µM
- GI50 (EKVX NSCLC): 25.4 µM
- TGI (EKVX NSCLC): > 100 µM
- GI50 (UO-31 renal): 37.9 µM
- TGI (UO-31 renal): > 100 µM
